This is an account of results in US20160008431A1, “Tumor Therapy With Antitumor Agents In Combination With Sindbis Virus-Based Vectors” (priority 2008, published 2016).

Data set [1] relates to ES2/Fluc tumors. The experiment in a line: Sindbis+CPT-11 ES2/Fluc tumor survival experiment. Format: in vivo, Es1^c/SCID mice. As to conditions: untreated mice survived about 4 weeks; i.p. treatment 4 times a week for 5 weeks from day 5. The protocol: FIGS. 1A and 1B: Survival of tumor-bearing mice treated with Sindbis+CPT-11. (A) Mice were injected with 1.5×10^6 ES2/Fluc cells on day 0. Mice were then divided into 4 groups of 10. Treatment started on day 5, and lasted for 5 weeks, in which mice were treated 4 times a week. Mice treated with Sindbis/LacZ received I.P. injection of ˜10^7 plaque-forming units of the vector in 0.5 mL OptiMEM; mice treated with CPT-11 received I.P. injections of 15 mg/kg body weight of the recipient of CPT-11 in […]. Mice treated with the combined treatments were treated with Sindbis/LacZ and CPT-11 on the same day (Sindbis/LacZ in the morning, and CPT-11 in the evening). […] The experiment was repeated twice (for a total of 20 mice per group), and the results were combined into one graph. (B) Tumor load in mice treated with Sindbis/LacZ+CPT-11. On day 4 after injecting the mice with 10 million ES2/Fluc cells, tumors developed in various IP locations (top). […]
C.B-17 SCID mice (Taconic, Germantown, N.Y.) were bred with a plasma esterase deficient mouse model—Es1^c Foxn1^nu/J (Jackson laboratory, Bar Harbor, Me.). […] Briefly, blood was collected from F2 mice, and was tested by FACS analysis to determine T and B cell levels, and the plasma esterase activity was measured using a nitrophenyl acetate assay (Spectrum, Gardena, Calif.). […]

For data set [2], the system named is luciferase-expressing Mia Paca cells. The experiment in a line: Mia Paca pancreatic cancer model, Sindbis vectors with and without CPT-11. As to conditions: treated 4 times a week for 2 weeks; images since day 18. It counts as in vivo, Es1/SCID mice. How it is done:
FIG. 3 is a graph showing the effect of Sindbis virus vectors with and without CPT-11 treatment on pancreatic cancer in Mia Paca mice, a model for pancreatic cancer.
Female Es1/SCID mice were inoculated intraperitoneally with 5 million luciferase-expressing Mia Paca cells (a model for pancreatic cancer) on day 0. Mice were then divided into 4 groups: Mock (untreated), Sindbis/LacZ treated, CPT-11 treated, and Sindbis/LacZ+CPT-11 treated. The mice were treated 4 times a week, for 2 weeks, and then the treatment was stopped.

The test system of a further data set is s.c. N2a tumors. The experiment in a line: s.c. N2a neuroblastoma model: vascular leakiness, vector transduction, tumor growth. Format: in vivo, SCID mice. The note with it: for tumor vascular permeability / leakiness (AngioSense signals): metronomic i.p. Paclitaxel 16 mg/Kg or Cisplatin 4 mg/Kg. An excerpt: FIG. 7A-7D. […] We used 1:1 RD-Sindbis/LacZ:RC-Sindbis/Fluc mixture as a control. AngioSense® 750 (0.66 nmol) was i.v. injected on day 1. […] B, quantitative presentation of luciferase signals in tumors. C and D, quantitative presentation of AngioSense® signals of tumors receiving indicated treatments.
A, relative growth curves of s.c. N2a tumors treated with Paclitaxel alone (Taxol®) or untreated (Ctrl). B, relative tumor growth curves of different treatment groups as in FIG. 5.
FIG. 9A-9C. […] Starting on day 0, daily treatments of Cisplatin (4 mg/Kg or 12 mg/m^2 compared with maximum tolerated dose of 100 mg/m^2 in humans) were i.p. injected into SCID mice bearing s.c. N2a tumors. One last Cisplatin treatment was administrated on day 4. A, to visualize vascular leakiness, AngioSense® 750 (0.66 nmol) was i.v. injected on day 1 and imaged on day 2. B, RC-Sindbis/Fluc was i.v. injected on day 0 and day 2. Luciferase activities in tumors that indicated active vector propagation were monitored on day 3. C, relative tumor growth curves of different treatment groups.
All animal experiments were performed in accordance with NIH and institutional guidelines. BHK cells (1.5×10^6/mouse) were s.c. inoculated into SCID mice (female, 6-8 week old, Taconic, Germantown, N.Y.). The mouse neuroblastoma tumors were induced by s.c. injection of 1.5×10^6 N2a cells into SCID mice 13 days prior to treatments. For better visualization, we remove excessive fur on the skin over the tumor and its surrounding region. The setting for dual mPlum/AngioSense imaging is as following: ex605/em660, 680 and 700 nm, followed by ex745/em800, 820 and 840 nm. Bioluminescent imaging of luciferase activities was performed as described before (7). Tumor sizes were measured using the formula: π/6×length (mm)×width (mm)^2.
In order to test whether chemotherapeutic agents synergize with Sindbis vector in tumor eradication by modulating vascular leakiness, we used a s.c. mouse N2a neuroblastoma model.
We used a replication-competent (RC) Sindbis/Fluc vector (21) instead of an RD one to further enhance the tumor transduction signal output (FIG. 7B) in N2a tumors. RC vector carries a full set of viral structural genes to support its replication. Specific tumor infection of RC vector could result in oncolytic effects by intratumoral vector replication and amplification. […] To ensure temporary expression of VEGF, we used replication defective RD-Sindbis/VEGF mixed with RC-Sindbis/Fluc (1:1).

The conditions of data set [3]: in human; cited from earlier work.
For data set [4], the system named is ES2/Fluc tumors. Briefly: Sindbis+Taxol ES2/Fluc tumor growth and survival experiment. It counts as in vivo, SCID mice. The protocol:
FIG. 2A-2D: Survival and tumor load in tumor-bearing mice treated with Sindbis+Taxol®. Mice were injected with 4×10^6 ES2/Fluc cells on day 0. Mice were then divided into 4 groups of 9. Mice were treated with Sindbis/LacZ (I.P.) daily from day 1 to day 11, and with Taxol® (0.4 mg/mouse) on day 3, 6 and 10. (B) Quantitative analysis of tumor growth, day 1 tumor load signal was set at 100% for each individual mouse for comparison with later images (day 3, 6, and 10). (C) Mouse survival was monitored. (D) The surviving mice were imaged on day 46 to determine if they have any tumors.
Sindbis+Taxol® ES2/Fluc tumor growth and survival experiment: Female SCID mice (8-12 weeks old) received intraperitoneal injections of 4×10^6 ES2/Fluc cells on day 0, and tumor growth was validated by imaging the mice on day 1. For quantitative analysis of tumor growth, day 1 tumor load signal was set as 100% for each individual mouse for comparison with subsequent images. Mice (nine per group) were treated with Sindbis/LacZ (I.P.) daily from day 1 to day 11, and with Taxol® (0.4 mg/mouse) on day 3, 6 and 10. Mice were imaged on days 1, 3, 6, 10, and 46. A tumor free mouse was used as a negative control.

For the next data set, the system named is cancer cells. The experiment in a line: Pretreatment of cancer cells with drug, susceptibility to Sindbis vector. Format: cell-based. The note with it: data not shown.
For a further data set, the system named is endothelium cells. The note with it: cited from earlier work.

Entries after “also recorded” stand apart in the source; their conditions may differ.

Regarding `CCc1c2c(nc3ccc(OC(=O)N4CCC(N5CCCCC5)CC4)cc13)-c1cc3c(c(=O)n1C2)COC(=O)[C@]3(O)CC` [CPT-11, irinotecan], the “additional survival compared with untreated mice” value in the data set on ES2/Fluc tumors [1] came to 15 days. Moreover, the “tumor status on images” value in data set [2] is reported as “have tumors that appear to be growing”.

In the case of `N.N.[Cl][Pt][Cl]` [Cisplatin], the “Sindbis vector delivery and transduction (luciferase signals in tumors)” value with s.c. N2a tumors (RC-Sindbis/Fluc vector) was “enhanced”. Also, the “tumor vascular permeability / leakiness (AngioSense signals)” value in the data set with s.c. N2a tumors is recorded as “significantly increased; also recorded: enhancement in tumor vascular leakiness”. Also, in the data set with s.c. N2a tumors (relative tumor growth curves, FIG. 8B, 9C), the “therapeutic efficacy in combination with Sindbis vectors” value is “better therapeutic efficacy”. Also, the maximum tolerated dose in data set [3] is listed as 100 mg/m^2.

As for `CC(=O)O[C@H]1C(=O)[C@@]2(C)[C@H]([C@H](OC(=O)c3ccccc3)[C@]3(O)C[C@H](OC(=O)[C@H](O)[C@@H](NC(=O)c4ccccc4)c4ccccc4)C(C)=C1C3(C)C)[C@]1(OC(C)=O)CO[C@@H]1C[C@@H]2O` [Paclitaxel], the “tumor level of survivors on day 46” value in the data set on ES2/Fluc tumors [4] (IVIS imaging, compared with tumor-free mouse) is recorded as “much higher tumor levels”. Also, in the data set with ES2/Fluc tumors [4] (days 3, 6 and 10, day 1 signal set at 100%), the “tumor load / tumor growth by imaging” value is on record as “still show tumor growth”. Also, the “mice surviving on day 46” value in the data set with ES2/Fluc tumors [4] (nine mice per group, treatment stopped for 35 days) is “one”. The “tumor vascular permeability / leakiness (AngioSense signals)” value in the data set with s.c. N2a tumors is on record as “significantly increased; also recorded: enhance tumor vascular leakiness”. Moreover, the “tumor growth, drug alone” value with s.c. N2a tumors (relative growth curves, FIG. 8A) is reported as “suppresses tumor growth”. Moreover, in the data set with cancer cells, the “susceptibility of pretreated cancer cells to Sindbis vector” value is recorded as “does not enhance”. Besides, the maximum tolerated dose in data set [3] was 175 mg/m^2. In addition, the “sensitivity of endothelium cells relative to tumor cells, times more sensitive” value in the data set on endothelium cells is listed as 10-100.
